Results as given in publication PMC5908301, “Small molecule CXCR4 antagonists block the HIV-1 Nef/CXCR4 axis and selectively initiate the apoptotic program in breast cancer cells” (Oncotarget, 2018).
pEC50, pIC50: −log10 of the molar value. Entries after “also recorded” stand apart in the source; their conditions may differ. Like-named read-outs stand apart in the source and are kept apart here.

What was measured:
[1] = system: Jurkat T-lymphocyte cells; assay: Inhibition of Nef M1 peptide-induced mitochondrial depolarization/apoptosis in Jurkat cells (JC-1); format: cell-based, human; conditions: for pEC50: JC-1; for protection against M1 (control drugs): data not shown
CXCR4 = target: T1, CXCR4 (Homo sapiens, UniProt P61073); assay: Inhibition of SDF-1α-mediated calcium flux in CXCR4-expressing CEM cells; format: cell-based; conditions: for pIC50: read-out: CEM SDF-1 Ca2+ Flux IC50
T1 construct: CXCR4-expressing CEM cells; endogenous in cells; host or cells: CEM cells
Method: CXCR4- expressing CEM cells were loaded with Fluo-4, washed, and pre- incubated with the indicated concentrations of test compounds for 10 min.

MDA-MB-231 cells [2] = assay: Mitochondrial depolarization of MDA-MB-231 breast cancer cells (JC-1 stain); conditions: for pEC50 / inhibition at 100 µM: Homo sapiens; for depolarization of MDA-MB-231 cells in dose response (qualitative): Figure 10; for inhibition at 100 µM: MDA-MB-231, read-out: inhibition (effect) reached in MDA-MB-231 depolarization assay; for depolarization of MDA-MB-231 cells (qualitative): at concentrations below 10 μM; for depolarization/apoptosis of MDA-MB-231 cells (qualitative): up to 100 μM
HIV-1IIIB = assay: MAGI antiviral (entry) assay with HIV-1IIIB in HeLa-derived MAGI-CCR5/CXCR4 cells; format: cell-based
Method: MAGI-CCR5/CXCR4 cells are derived from HeLa-CD4-LTR-β-gal cells. The cells have been engineered to express high levels of CD4 and CXCR4 and contain one copy of the HIV-1 LTR promoter driving expression of the β-galactosidase gene upon HIV-1 Tat transactivation. On the day preceding the assay, the cells are plated at 1 × 10^4 well and incubated at 37°C overnight. Total cell and viability quantification is performed using a hemacytometer and trypan blue exclusion.
The virus used for these tests is the CXCR4-tropic strain HIV-1IIIB. […] For each assay, a pre-titered aliquot of virus is removed from the freezer (−80°C) and allowed to thaw slowly to room temperature in a biological safety cabinet.
Compounds are evaluated at one or two concentrations (e.g., for initial screening) or in dose-response at six concentrations (triplicate wells/concentration). On the day of assay setup, compound dilutions are prepared at two-times (2×) the final required concentrations. Media used for plating the cells the day before assay setup is aspirated from the plates and replaced with 50 μL of the 2× compounds, followed by the addition of 50 μL of virus, which dilutes the compounds to the final 1X concentrations. Cell control wells (cells only) and virus control wells (cells plus virus) are included on each assay plate. Identical uninfected assay plates (virus replaced with media) are prepared for parallel cytotoxicity testing.
Once HIV-1 has attached and entered the MAGI-CXCR4 cells, HIV-1 Tat transactivates the LTR dependent β-galactosidase enzyme to express higher than normal levels of β-galactosidase. […] At 48 hours or 6 days post infection, plates are aspirated, and PBS is added to each well. Gal-screen reagent (Tropix, Bedford, MA) is then added per the manufacturer's instructions for chemiluminescent detection of β-galactosidase activity and incubated at room temperature for 90 minutes. The resulting chemiluminescence signal is then read using a Microbeta Trilux luminescence reader (PerkinElmer/Wallac).
Percent inhibition of virus replication and percent cell viability at each concentration are calculated using an in-house computer program. […] Raw data for both antiviral activity and cytotoxicity with analyzed/tabulated data are provided in a printout summarizing the individual compound activity. For dose-response testing, a graphical representation of the data is also provided.

Jurkat cells = assay: M1 peptide-induced apoptosis in Jurkat cultures (TUNEL); format: cell-based, human
Method: (A) Fluorescent microscopy images of Jurkat cultures stained via TUNEL. (B) TUNEL stained cells were counted and quantified. Fluorescent microscopy images were arranged with Adobe photoshop 6.0 software and analyzed by Image-Pro 6.3 software (Media Cybernetics, Silver Spring, MD).
(§1) Cells were grown to 80% confluence in 35 mm plates, either untreated or treated with 10 ng/ml of Nef Motif1 or CXCR4 antagonists for 24 hours. The cells were washed twice in ice-cold PBS and then fixed in 4% paraformaldehyde 1 hour. TUNEL assay for apoptosis and microscopy were done as described previously.

MDA-MB-231 cells [3] = conditions: Figure 8B, TUNEL
Method: (D) MDA-MB-231 cells mock treated were analyzed via TUNEL.
as §1

[4] = Homo sapiens, Jurkat, 24 h, concentration inhibiting M1-induced mitochondrial depolarization by 50%, 10 ng/mL M1, 24 h, read-out: Jurkat M1 Inhibition EC50
[5] = MDA-MB-231, 24 h, read-out: MDA-MB-231 Depolarization EC50
[6] = MDA-MB-231, read-out: EC50 depolarization/apoptosis of MDA-MB-231 cells
[7] = Human immunodeficiency virus 1, MAGI-CCR5/CXCR4 cells, β-galactosidase reporter, read-out: HeLa HIV-1IIIB MAGI IC50
[8] = Homo sapiens, Jurkat, read-out: EC50 against M1-mediated apoptosis in Jurkat cells
[9] = Human immunodeficiency virus 1, MAGI, read-out: HIV-1IIIB MAGI IC50

T1 sequence (P61073 whole entry): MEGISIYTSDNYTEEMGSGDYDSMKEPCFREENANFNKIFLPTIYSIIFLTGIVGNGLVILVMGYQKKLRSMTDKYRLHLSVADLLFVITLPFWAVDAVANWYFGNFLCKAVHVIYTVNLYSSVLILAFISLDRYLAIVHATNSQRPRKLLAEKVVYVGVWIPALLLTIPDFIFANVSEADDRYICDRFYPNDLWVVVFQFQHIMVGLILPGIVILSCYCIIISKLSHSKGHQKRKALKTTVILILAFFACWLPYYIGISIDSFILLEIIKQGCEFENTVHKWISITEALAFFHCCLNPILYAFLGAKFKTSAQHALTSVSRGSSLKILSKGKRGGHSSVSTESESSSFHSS

Compound | pEC50 [1, 4] | pEC50 (MDA-MB-231 cells [2]; [5]) | pIC50 (HIV-1IIIB; [7]) | pIC50 (CXCR4) | other results
c1ccc(Cc2cn[nH]c2C2CCN(Cc3ccncc3)CC2)cc1 [Compound 8] | 5.96 | 7.55 | 6.11 |  | CXCR4 functional response in calcium flux assay (qualitative) (CXCR4): no measurable CXCR4 functional response; pEC50 (MDA-MB-231 cells [2]; [6]): > 7.00
Cc1cn([C@H]2C[C@H](N=[N+]=[N-])[C@@H](CO)O2)c(=O)[nH]c1=O [AZT, reference compound] |  |  |  |  | protection against M1 (control drugs) [1]: did not confer protection; depolarization of MDA-MB-231 cells in dose response (qualitative) (MDA-MB-231 cells [2]): No depolarization
TNAACAWLEAQ [Compound M1, pro-apoptotic peptide, residues 50–60 of HIV-1 Nef] |  |  |  |  | apoptosis induction in Jurkat cultures by peptide (Jurkat cells; 10 ng/mL, 24 h, no antagonist): displayed apoptosis
c1ccc(CNCCCCN(C[C@H]2Cc3ccccc3CN2)[C@H]2CCCc3cccnc32)nc1 [Compound 2] |  |  |  |  | Apoptosis (%) (MDA-MB-231 cells [3]): 93%
CN(C[C@@H]1CN(Cc2ccc(C(F)(F)F)cc2)CCN1)[C@H]1CCCc2cccnc21 [Compound 7] | 4.90 | 4.07 | 5.10 | < 4.30 | 
CN(C[C@@H]1CN(Cc2ccccc2)CCN1)[C@H]1CCCc2cccnc21 [Compound 6] |  | 5.00 | 6.07 | 5.48 | pEC50 [1, 8]: 7.28; inhibition at 100 µM (MDA-MB-231 cells [2]): ≤ 65%; depolarization of MDA-MB-231 cells (qualitative) (MDA-MB-231 cells [2]): failed to depolarize; pIC50 (HIV-1IIIB; [9]): > 7.00
NCCCN(C[C@@H]1CN(Cc2ccccc2)CCN1)[C@H]1CCCc2cccnc21 [Compound 5] | 8.00 | 9.41 | 7.52 | 6.72 | 
NC(=O)NCCCCN(C[C@H]1Cc2ccccc2CN1)[C@H]1CCCc2cccnc21 [Compound 1] | 9.52 | 9.10 |  | 8.40 | pIC50 (HIV-1IIIB; Human immunodeficiency virus 1, MAGI, read-out: HeLa HIV-1IIIB MAGI IC50): 6.68
NCCCCN(C[C@H]1Cc2ccccc2CN1Cc1cnccn1)[C@H]1CCCc2cccnc21 [Compound 3] | 8.46 | 7.82 | 6.10 | 6.96 | inhibition at 100 µM (MDA-MB-231 cells [2]): ≤ 65%
NCCCCN(C[C@H]1Cc2ccccc2CN1Cc1ccncn1)[C@H]1CCCc2cccnc21 [Compound 4] |  | < 4.00 | 8.52 | 5.11 | pEC50 [1, 8]: 7.28; inhibition at 100 µM (MDA-MB-231 cells [2]): ~20%; depolarization of MDA-MB-231 cells (qualitative) (MDA-MB-231 cells [2]): failed to depolarize; depolarization/apoptosis of MDA-MB-231 cells (qualitative) (MDA-MB-231 cells [2]): no apoptosis; also recorded: failed to depolarize; depolarization/apoptosis of MDA-MB-231 cells (qualitative) (MDA-MB-231 cells [2]; listed as compound 4): no effect; pIC50 (HIV-1IIIB; [9]): > 7.00
Maraviroc [reference compound] |  |  |  |  | protection against M1 (control drugs) [1]: did not confer protection; depolarization of MDA-MB-231 cells in dose response (qualitative) (MDA-MB-231 cells [2]): No depolarization
CC1(C)CN2C(CSC(=NC3CCCCC3)NC3CCCCC3)=CSC2=N1 [IT1t, reference compound] |  | 8.20 | 8.00 |  | protection from M1-mediated apoptosis (Jurkat cells; prophylactic 50 nM, then M1): complete protection; pEC50 [1, 8]: > 7.00; pEC50 ([1]; concentration inhibiting M1-induced mitochondrial depolarization by 50%, 10 ng/mL M1, 24 h, listed as It1t, read-out: Jurkat M1 Inhibition EC50): 9.15; pEC50 ([1]; concentration inhibiting M1-induced mitochondrial depolarization by 50%, 10 ng/mL M1, 24 h, read-out: Jurkat M1 Inhibition EC50): ≥ 6.00

Continued, in another order:

pEC50 [1, 4] | pEC50 (MDA-MB-231 cells [2]; [5]) | pIC50 (HIV-1IIIB; [7]) | pIC50 (CXCR4) | Compound | other results
 | 6.91 | 8.70 |  | c1cc(CN2CCCNCCNCCCNCC2)ccc1CN1CCCNCCNCCCNCC1 [AMD3100, reference compound] | Apoptosis (%) (MDA-MB-231 cells [3]): 89.5%; pEC50 [1, 8]: 6.33; Depolarization (%) (MDA-MB-231 cells [2]; Figure 8A, JC-1 staining): 91%; depolarization of MDA-MB-231 cells in dose response (qualitative) (MDA-MB-231 cells [2]): significant depolarization; pIC50 (HIV-1IIIB; [9]): 8.30 to 8.70
4.92 | 7.09 | < 5.00 | < 5.00 | c1cnc(NCc2ccc(CNc3ncccn3)cc2)nc1 [MSX-122, reference compound] | CXCR4 functional response in calcium flux assay (qualitative) (CXCR4): no measurable CXCR4 functional response; pEC50 (MDA-MB-231 cells [2]; [6]): > 7.00
